22 molecules from US12595255B2, “Heteroaryl-substituted imidazole derivatives” (Hoffmann-La Roche Inc., priority 2021, dated 2026) can be followed below.

This assay concerns Acinetobacter baumannii ATCC17961. In words: Antimicrobial susceptibility testing: 90% growth inhibitory concentration (IC90) determination. The assay is classed as cell-based. The conditions noted are these: ATCC17961, 90% growth inhibitory concentration, Iso-Sensitest broth, OD 600 nm over 16 h, 35±2° C., read-out: ATCC 17961 IC90. As to the method: Assay Procedures Antimicrobial Susceptibility Testing: 90% Growth Inhibitory Concentration (IC90) Determination
The in vitro antimicrobial activity of the compounds was determined according to the following procedure:
The assay used a 10-points Iso-Sensitest broth medium to measure quantitatively the in vitro activity of the compounds against Acinetobacter baumannii ATCC17961.
Stock compounds in DMSO were serially twofold diluted (e.g. range from 50 to 0.097 μM final concentration) in 384 wells microtiter plates and inoculated with 49 μl the bacterial suspension in Iso-Sensitest medium to have a final cell concentration of ˜5×10^5 CFU/ml in a final volume/well of 50 μl/well. Microtiter plates were incubated at 35±2° C.
Bacterial cell growth was determined with the measurement of optical density at λ=600 nm each 20 minutes over a time course of 16 h. Growth inhibition was calculated during the logarithmic growth of the bacterial cells with determination of the concentration inhibiting 50% (IC50) and 90% (IC90) of the growth.
Table 1 provides the 90% growth inhibitory concentrations (IC90) in micromoles per liter of the compounds of present invention obtained against the strain Acinetobacter baumannii ATCC17961.
With `CN(C)c1nc(F)c(-c2cnc(C(=O)Nc3ccc(C(=O)NCCCCCC[N+](C)(C)C)c(Cl)c3)n2C)cc1F` [Example D3, 6-[[2-chloro-4-[[5-[6-(dimethylamino)-2,5-difluoro-3-pyridyl]-1-methyl-imidazole-2-carbonyl]amino]benzoyl]amino]hexyl-trimethyl-ammonium], the IC90 (usually the concentration at which the effect reaches the 90% level) turned out to be 4200 nM.

For `Cc1nc(N(C)C)ccc1-c1cnc(C(=O)Nc2ccc(C(=O)N3CCN(C(=O)C4CCNCC4)CC3)c(Cl)c2)n1C` [Example E4, N-[3-chloro-4-[4-(piperidine-4-carbonyl)piperazine-1-carbonyl]phenyl]-5-[6-(dimethylamino)-2-methyl-3-pyridyl]-1-methyl-imidazole-2-carboxamide], the IC90 was determined as 1400 nM.

`CN(C)c1nc(F)c(-c2cnc(C(=O)Nc3ccc(C(=O)N4CCN(C(=O)C[C@@H]5CCNC5)CC4)c(Cl)c3)n2C)cc1F` [Example F2, N-[3-chloro-4-[4-[2-[(3S)-pyrrolidin-3-yl]acetyl]piperazine-1-carbonyl]phenyl]-5-[6-(dimethylamino)-2,5-difluoro-3-pyridyl]-1-methyl-imidazole-2-carboxamide]: the IC90 worked out at 230 nM.

`CN(C)c1nc(F)c(-c2cnc(C(=O)Nc3ccc(C(=O)N4CCN(C(=O)C5CC(C[N+](C)(C)C)C5)CC4)c(Cl)c3)n2C)cc1F` (stereo not shown) [Example D11, [3-[4-[2-chloro-4-[[5-[6-(dimethylamino)-2,5-difluoro-3-pyridyl]-1-methyl-imidazole-2-carbonyl]amino]benzoyl]piperazine-1-carbonyl]cyclobutyl]methyl-trimethyl-ammonium]: the IC90 was found to be 1500 nM.

Consider `CN(C)CC(=O)N1CCN(C(=O)c2ccc(NC(=O)c3ncc(-c4cc(F)c(N(C)C)nc4F)n3C)cc2Cl)CC1` [Example C1, N-[3-chloro-4-[4-[2-(dimethylamino)acetyl]piperazine-1-carbonyl]phenyl]-5-[6-(dimethylamino)-2,5-difluoro-3-pyridyl]-1-methyl-imidazole-2-carboxamide], for which the IC90 amounted to 530 nM.

`CN(C)c1nc(F)c(-c2cnc(C(=O)Nc3ccc(C(=O)N4CCN(C(=O)C5(O)CCNCC5)CC4)c(Cl)c3)n2C)cc1F` [Example F1, N-[3-chloro-4-[4-(4-hydroxypiperidine-4-carbonyl)piperazine-1-carbonyl]phenyl]-5-[6-(dimethylamino)-2,5-difluoro-3-pyridyl]-1-methyl-imidazole-2-carboxamide]: the IC90 was determined as 270 nM.

For `CN(C)c1ncc(-c2cnc(C(=O)Nc3ccc(C(=O)N4CCN(C(=O)C[C@@H]5CCNC5)CC4)c(Cl)c3)n2C)c(C(F)(F)F)n1` [Example A9, N-[3-chloro-4-[4-[2-[(3S)-pyrrolidin-3-yl]acetyl]piperazine-1-carbonyl]phenyl]-5-[2-(dimethylamino)-4-(trifluoromethyl)pyrimidin-5-yl]-1-methyl-imidazole-2-carboxamide], the IC90 turned out to be 580 nM.

Consider `CN(C)c1nc(F)c(-c2cnc(C(=O)Nc3ccc(C(=O)NC4CCN(C(=O)[C@@H]5C[C@@H](O)CN5)CC4)c(Cl)c3)n2C)cc1F` [Example F9, N-[3-chloro-4-[[1-[(2S,4R)-4-hydroxypyrrolidine-2-carbonyl]-4-piperidyl]carbamoyl]phenyl]-5-[6-(dimethylamino)-2,5-difluoro-3-pyridyl]-1-methyl-imidazole-2-carboxamide], for which the IC90 amounted to 1900 nM.

On to `Cc1n[nH]c2cc(F)c(-c3cnc(C(=O)Nc4ccc(C(=O)N5CCN(C(=O)C[C@@H]6CCNC6)CC5)c(Cl)c4)n3C)cc12` [Example A2, N-[3-chloro-4-[4-[2-[(3S)-pyrrolidin-3-yl]acetyl]piperazine-1-carbonyl]phenyl]-5-(6-fluoro-3-methyl-1H-indazol-5-yl)-1-methyl-imidazole-2-carboxamide], for which the IC90 is 460 nM.

Regarding `CN(C)c1nc(F)c(-c2cnc(C(=O)Nc3ccc(C(=O)N4CCN(C(=O)C[N+](C)(C)C)CC4)c(Cl)c3)n2C)cc1F` [Example D1, [2-[4-[2-chloro-4-[[5-[6-(dimethylamino)-2,5-difluoro-3-pyridyl]-1-methyl-imidazole-2-carbonyl]amino]benzoyl]piperazin-1-yl]-2-oxo-ethyl]-trimethyl-ammonium], the IC90 is 650 nM.

`Cn1c(-c2cccc3[nH]ccc23)cnc1C(=O)Nc1ccc(C(=O)N2CCN(C(=O)C3CCNCC3)CC2)c(Cl)c1` [Example A12, N-[3-chloro-4-[4-(piperidine-4-carbonyl)piperazine-1-carbonyl]phenyl]-5-(1H-indol-4-yl)-1-methyl-imidazole-2-carboxamide]: the IC90 came to 490 nM.

As for `CN(C)c1nc(F)c(-c2cnc(C(=O)Nc3ccc(C(=O)NC4CCN(C(=O)[C@@H]5C[C@@H](O)C[N+]5(C)C)CC4)c(Cl)c3)n2C)cc1F` [Example D12, N-[3-chloro-4-[[1-[(2S,4R)-4-hydroxy-1,1-dimethyl-pyrrolidin-1-ium-2-carbonyl]-4-piperidyl]carbamoyl]phenyl]-5-[6-(dimethylamino)-2,5-difluoro-3-pyridyl]-1-methyl-imidazole-2-carboxamide], the IC90 stood at 2800 nM.

Turning to `CN(C)c1nc(F)c(-c2cnc(C(=O)Nc3ccc(C(=O)N4CCN(C(=O)C5CC[N+](C)(C)CC5)CC4)c(Cl)c3)n2C)cc1F` [Example D4, N-[3-chloro-4-[4-(1,1-dimethylpiperidin-1-ium-4-carbonyl)piperazine-1-carbonyl]phenyl]-5-[6-(dimethylamino)-2,5-difluoro-3-pyridyl]-1-methyl-imidazole-2-carboxamide], the IC90 was determined as 600 nM.

With `CN(C)c1nc(F)c(-c2cnc(C(=O)Nc3ccc(C(=O)N4CCN(C(=O)CC5(O)CCNCC5)CC4)c(Cl)c3)n2C)cc1F` [Example F3, N-[3-chloro-4-[4-[2-(4-hydroxy-4-piperidyl)acetyl]piperazine-1-carbonyl]phenyl]-5-[6-(dimethylamino)-2,5-difluoro-3-pyridyl]-1-methyl-imidazole-2-carboxamide], the IC90 is 430 nM.

For `CN(C)c1ccc(-c2cnc(C(=O)Nc3ccc(C(=O)N4CCN(C(=O)C5CCNCC5)CC4)c(Cl)c3)n2C)c(C(F)(F)F)n1` [Example A6, N-[3-chloro-4-[4-(piperidine-4-carbonyl)piperazine-1-carbonyl]phenyl]-5-[6-(dimethylamino)-2-(trifluoromethyl)-3-pyridyl]-1-methyl-imidazole-2-carboxamide], the IC90 turned out to be 310 nM.

For `CN(C)c1ccc(-c2cnc(C(=O)Nc3ccc(C(=O)N4CCN(C(=O)C5CCNCC5)CC4)c(Cl)c3)n2C)c(F)n1` [Example E3, N-[3-chloro-4-[4-(piperidine-4-carbonyl)piperazine-1-carbonyl]phenyl]-5-[6-(dimethylamino)-2-fluoro-3-pyridyl]-1-methyl-imidazole-2-carboxamide], the IC90 was found to be 470 nM.

For the molecule `CN(C)c1nc(F)c(-c2cnc(C(=O)Nc3ccc(C(=O)N4CCC(C(=O)NC5CCNC5)CC4)c(Cl)c3)n2C)cc1F` (stereo not shown) [Example F10, 1-[2-chloro-4-[[5-[6-(dimethylamino)-2,5-difluoro-3-pyridyl]-1-methyl-imidazole-2-carbonyl]amino]benzoyl]-N-pyrrolidin-3-yl-piperidine-4-carboxamide], the IC90 was 640 nM.

For the molecule `CN(C)c1nc(F)c(-c2cnc(C(=O)Nc3ccc(C(=O)N4CCN(C(=O)C5CCNCC5)CC4)c(Cl)c3)n2C)cc1F` [Example E2, N-[3-chloro-4-[4-(piperidine-4-carbonyl)piperazine-1-carbonyl]phenyl]-5-[6-(dimethylamino)-2,5-difluoro-3-pyridyl]-1-methyl-imidazole-2-carboxamide], the IC90 was determined as 190 nM.

As for `CN(C)c1nc(F)c(-c2cnc(C(=O)Nc3ccc(C(=O)N4CCN(C(=O)CC5CCNCC5)CC4)c(Cl)c3)n2C)cc1F` [Example F6, N-[3-chloro-4-[4-[2-(4-piperidyl)acetyl]piperazine-1-carbonyl]phenyl]-5-[6-(dimethylamino)-2,5-difluoro-3-pyridyl]-1-methyl-imidazole-2-carboxamide], the IC90 turned out to be 660 nM.

On to `COc1ccc(-c2cnc(C(=O)Nc3ccc(C(=O)N4CCN(C(=O)C5CCNCC5)CC4)c(Cl)c3)n2C)c(C(F)(F)F)n1` [Example A16, N-[3-chloro-4-[4-(piperidine-4-carbonyl)piperazine-1-carbonyl]phenyl]-5-[6-methoxy-2-(trifluoromethyl)-3-pyridyl]-1-methyl-imidazole-2-carboxamide], for which the IC90 is 280 nM.

`CN(C)c1nc(F)c(-c2cnc(C(=O)Nc3ccc(C(=O)N4CCN(C(=O)C5CC[N+](C)(C)C5)CC4)c(Cl)c3)n2C)cc1F` (stereo not shown) [Example D5, N-[3-chloro-4-[4-(1,1-dimethylpyrrolidin-1-ium-3-carbonyl)piperazine-1-carbonyl]phenyl]-5-[6-(dimethylamino)-2,5-difluoro-3-pyridyl]-1-methyl-imidazole-2-carboxamide]: the IC90 stood at 590 nM.

For the molecule `Cn1c(-c2ccc3[nH]nc(C(F)(F)F)c3c2)cnc1C(=O)Nc1ccc(C(=O)N2CCN(C(=O)C[C@@H]3CCNC3)CC2)c(Cl)c1` [Example A3, N-[3-chloro-4-[4-[2-[(3S)-pyrrolidin-3-yl]acetyl]piperazine-1-carbonyl]phenyl]-1-methyl-5-[3-(trifluoromethyl)-1H-indazol-5-yl]imidazole-2-carboxamide], the IC90 was 230 nM.
